Measured values from US20260248918A1, “COMPOSITIONS AND METHODS OF SUPPRESSING AVERSIVENESS OF PHARMACEUTICALS AND INGESTIBLE MATERIALS” (Monell Chemical Senses Center, priority 2019, published 2026).
Entries after “also recorded” stand apart in the source; their conditions may differ. Where two headings read alike, the source gives them in different places.

Experiments:
[1] = test system: Gamma-aminobutyric acid A receptor alpha; details: in vitro; cited from earlier work
[2] = test system: Benzodiazepine receptor (gamma-aminobutyric acid receptor subunit); details: rat cortical membranes; cited from earlier work
androgen receptor = details: human MDA-kb2 cells; cited from earlier work
hTBEC cells = test: hTBEC bioassay: antagonism of bitter-drug stimulation of human taste bud cells; assay type: cell-based; details: for IC50: Homo sapiens; for % maximum inhibition: at 50 μM antagonist
Method: FIGS. 12A and 12B show concentration-response curves or relationships (CRCs) for antagonism of TAF or piperaquine stimulation of hTBEC cells with an optimal concentration of each bitter-tasting medicine in vitro. Each inhibition curve was fitted to the data so as to calculate an IC50 or the concentration that inhibits 50% of the signal. A Hill slope was calculated, along with the % maximal inhibition and the concentration of antagonist, 6-methylflavone, (indicated by the ref ST069348) required to fully block the response in the assay. These metrics were slightly different for antagonism by 6 -methylflavone of TAF versus piperaquine. FIG. 12A is a graph showing the suppression of human taste bud cells (hTBEC) cells with 6-methylflavone added to 300 micromolar TAF stimulated cells. […] FIG. 12B is a graph showing the suppression of hTBEC cells with 6-methylflavone added to 100 micromolar Piperaquine stimulated cells. IC50 is 2.0 μM for 6-methylflavone antagonism of Piperaquine stimulation.
Using a primary hTBEC platform, a high throughput screening (HTS) was conducted with more than 2,000 small molecular weight purified phytochemicals and botanical extracts. The screen identified 40 antagonists that suppressed taste cell activation by target APIs. […] TAS2R1 is responsive to piperaquine and tenofovir. (See FIG. 4)

glucocorticoid receptor = target: T1, glucocorticoid receptor (Homo sapiens, UniProt P04150); details: human MDA-kb2 cells; cited from earlier work
T1 construct: glucocorticoid receptor in human MDA-kb2 cells; endogenous in cells; host or cells: MDA-kb2
T1 sequence (P04150 1-777): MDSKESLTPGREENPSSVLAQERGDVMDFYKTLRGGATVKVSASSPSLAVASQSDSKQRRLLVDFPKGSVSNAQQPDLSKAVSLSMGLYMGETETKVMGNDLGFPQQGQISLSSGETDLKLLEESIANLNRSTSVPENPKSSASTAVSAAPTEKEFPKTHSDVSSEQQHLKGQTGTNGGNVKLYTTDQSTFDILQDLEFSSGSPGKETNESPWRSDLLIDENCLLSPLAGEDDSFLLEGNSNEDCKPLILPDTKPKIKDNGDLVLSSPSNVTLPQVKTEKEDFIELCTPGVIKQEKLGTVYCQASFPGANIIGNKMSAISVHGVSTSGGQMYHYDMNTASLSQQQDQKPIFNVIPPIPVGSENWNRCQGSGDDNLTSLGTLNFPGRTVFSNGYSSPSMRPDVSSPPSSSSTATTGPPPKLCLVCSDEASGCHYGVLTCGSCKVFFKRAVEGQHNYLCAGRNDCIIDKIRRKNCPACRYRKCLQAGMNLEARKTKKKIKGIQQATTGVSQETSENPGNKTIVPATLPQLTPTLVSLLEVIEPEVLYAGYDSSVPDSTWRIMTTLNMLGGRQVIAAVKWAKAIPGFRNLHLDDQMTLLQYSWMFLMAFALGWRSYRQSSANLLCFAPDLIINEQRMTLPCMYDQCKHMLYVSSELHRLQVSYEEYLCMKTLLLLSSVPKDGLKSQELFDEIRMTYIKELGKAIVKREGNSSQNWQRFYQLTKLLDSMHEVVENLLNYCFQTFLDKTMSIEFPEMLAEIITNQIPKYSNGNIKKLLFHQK

TAS2R1 = target: T2, TAS2R1 (Homo sapiens, UniProt Q9NYW7); test: Blocking of TAS2R1 response to the APIs; assay type: cell-based; details: data not shown
T2 sequence (Q9NYW7 1-299): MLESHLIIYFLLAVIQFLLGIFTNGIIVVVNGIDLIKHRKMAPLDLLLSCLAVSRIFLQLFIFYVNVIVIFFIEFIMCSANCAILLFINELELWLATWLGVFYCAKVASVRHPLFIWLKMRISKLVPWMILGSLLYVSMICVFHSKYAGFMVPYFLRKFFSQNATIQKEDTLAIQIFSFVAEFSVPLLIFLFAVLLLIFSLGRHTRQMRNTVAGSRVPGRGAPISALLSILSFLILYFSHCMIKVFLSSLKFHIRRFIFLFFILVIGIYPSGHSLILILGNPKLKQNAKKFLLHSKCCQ

TAS2R39 = target: T3, TAS2R39 (Homo sapiens, UniProt P59534); test: Blocking of TAS2R39 activity (HEK/TAS2R39) stimulated by Piperaquine or Tenofovir; assay type: cell-based; parameters: expressed in transfected cells; host or cells: HEK; details: 0.1 mM blocker
T3 sequence (P59534 1-338): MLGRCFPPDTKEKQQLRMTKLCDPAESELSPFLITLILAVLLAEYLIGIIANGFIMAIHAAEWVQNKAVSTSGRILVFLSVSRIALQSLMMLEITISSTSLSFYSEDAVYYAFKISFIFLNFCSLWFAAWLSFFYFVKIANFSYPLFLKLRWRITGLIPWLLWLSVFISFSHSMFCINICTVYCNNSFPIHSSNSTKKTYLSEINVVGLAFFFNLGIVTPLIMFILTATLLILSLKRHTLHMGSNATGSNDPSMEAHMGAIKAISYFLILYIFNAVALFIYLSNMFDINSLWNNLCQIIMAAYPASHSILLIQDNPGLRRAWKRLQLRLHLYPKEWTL
Method: FIG. 5A is a bar graph showing that the blocker 6-methylflavone (indicated by the arrow number 2) blocks the activity of taste receptor TAS2R39 to Piperaquine. Other blockers are unidentified compounds identified by the numbers following the concentrations under the X axis. Five candidates from the HTS screen blocked the activity of TAS2R39 to Piperaquine.
FIG. 5B is a graph plotting the activity of taste receptor HEK/TAS2R39 in the presence of 0.5 mM Piperaquine (bold black line); the combination of 0.5 mM Piperaquine and 0.1 mM of 6-methylflavone (light gray line), and a control with 0.1 mM of the blocker 6-methylflavone (dotted line).
Other blockers are identified by the numbers following the concentrations under the X axis.
FIG. 7B is a graph plotting the activity of taste receptor TAS2R39 in the presence of 1 mM Tenofovir (bold black line); the combination of 1 mM Tenovir and 0.1 mM of 6-methylflavone (light gray line), and a control with 0.1 mM of the blocker 6-methylflavone (dotted line).

## Cc1ccc2oc(-c3ccccc3)cc(=O)c2c1 [6-methylflavone]
[1]
  Inhibition of [3H]-Ro-15-1788 binding: has the ability to inhibit
[2]
  In vitro affinity against Benzodiazepine receptor binding: active
Androgen receptor
  Agonist activity at androgen receptor, stimulation of luciferase activity: agonist activity
hTBEC cells; hTBEC cells stimulated with 100 micromolar Piperaquine, FIG. 12B, read-out: IC50 for antagonism of Piperaquine stimulation
  IC50: 2 µM
hTBEC cells; hTBEC cells stimulated with 300 micromolar TAF, FIG. 12A, read-out: IC50 for antagonism of TAF stimulation
  IC50: 7.7 µM
hTBEC cells; 100 micromolar Piperaquine stimulated hTBEC cells, FIG. 12B
  % maximum inhibition: > 95%
hTBEC cells; 300 micromolar TAF stimulated hTBEC cells, FIG. 12A
  % maximum inhibition: > 95%
hTBEC cells; hTBEC cells stimulated with 100 micromolar Piperaquine, FIG. 12B
  Hill slope: 1.992
hTBEC cells; hTBEC cells stimulated with 300 micromolar TAF, FIG. 12A
  Hill slope: 2.18
hTBEC cells; stimulated by TAF, racemic praziquantel and piperaquine
  Blocking the stimulation of hTBEC cells by bitter tasting drugs: quite potent and effective
Glucocorticoid receptor
  Antagonist activity at glucocorticoid receptor: antagonist activity
TAS2R1; FIG. 5A legend (Piperaquine)
  Inhibition of TAS2R1: did not inhibit
TAS2R1; FIG. 7B legend
  Inhibition of the response of TAS2R1 to TAF: did not inhibit
TAS2R39; 0.5 mM Piperaquine, FIG. 5A/5B
  Inhibition of TAS2R39 activity to Piperaquine: powerful antagonist; also recorded: strong inhibition
TAS2R39; 1 mM Tenofovir, FIG. 7A/7B
  Inhibition of TAS2R39 activity in response to Tenofovir (TAF): powerful antagonist; also recorded: completely inhibited
